Measured values from patent US7439251B2, “Methods and compositions for treatment of central and peripheral nervous system disorders and novel compounds useful therefor” (Israel Institute for Biological Research, priority 2002, dated 2008).

How the values were obtained:
ApoE = ApoE synthesis and secretion in rat primary type 1 astrocytes; format: cell-based; settings: 96 hrs; 0.1 nM
Description: Primary cultures of type 1 astrocytes were derived from the cortex of Sprague Dawley rats. The compounds tested were dissolved in the culture media and added to cells for 24, 48, 72 and 96 hrs. Media was then removed and kept frozen until ApoE protein levels were evaluated by immunoblot analysis as described in Poirier et al Neuroscience 55: 81-90 (1993).

[1] = Morris water maze in C57BL/10SnJ (small hippocampus) vs C57BL6J mice; format: in vivo; settings: for reversal test, swimming speed: normal hippocampi mice, AF150(S) 0.5 mg/kg, AF267B 1 mg/kg
Description: C57BL/10SnJ (B10) mice were selected due to their small hippocampi and decreased number of hippocampal pyramidal neurons; the cell loss seemed to be associated with poor spatial learning.
Each group of mice was randomly divided into 7 treatment groups (n=12-14/group). […] All tested compounds and saline were administered once a day for 4 days before starting the behavioral testing, and then for the duration of the 5-day experiment, 30 minutes before testing.
Training: Each mouse was trained for four consecutive days, four trials (one block) per day, in which the platform position remained constant and was located in the center of the southeast quadrant of the pool. Within each block of four trials, each mouse started at each of the starting locations, but the sequence of locations was randomly selected. A trial consisted of placing a mouse by hand into the water facing the wall of the pool at one of four starting locations, north, south, east or west, around the pool's perimeter. Escape latency (the time to find the platform), path length (the distance traveled by the mouse) and speed (the swimming rate of the mouse) were recorded on each trial by the monitoring system.
For each mouse, the path length, escape latency, and swimming speed of the four trials on each of the 4 training days were grouped into blocks (one block for each day). […] Specific comparisons were performed, using the simple main effects contrasts analysis, which is specifically suited for testing significant interactions.
Transfer test. During trial No. 17, on the fourth day, the platform was entirely removed from the pool (a probe trial). In this trial, the mouse was placed into the water for a limited period (30 s), and its spatial bias was measured by recording the relative distribution of escape latency and path length over the four quadrants of the pool.
Reversal test. During trials 18-21, on the fifth day, the platform position was changed to the northwest quadrant, opposite to the training quadrant Thus, during reversal learning, the platform location was moved relative to the configuration of objects within the room, but the pool occupied the same place within the room throughout the entire experiment. Testing of the […] and measures taken were the same as in training.
For each mouse, the escape latency, path length and swimming speed of the reversal test (trials No. 18-21) were grouped into one block.

tau = assay: Tau phosphorylation, AT8 immunoblot; format: cell-based; settings: 100 μM; to the control level
Source text: Following the experimental design of Sadot et al., J.Neurochem. […] By linking an M1 agonist to an antioxidant moiety tau phophorylation may be decreased, providing a new therapeutic strategy in a variety of CNS disease states due to combined damage due to oxidative stress and tau hyperphosphorylation.

[2] = test system: rat pheochromocytoma cells transfected with the M1 mAChR
[3] = small hippocampus mice, AF compounds 0.5 and 1 mg/kg i.p., rivastigmine, nicotine 1 mg/kg i.p.

Compound: CC1OC2(CS1)CN1CCC2CC1 (stereo not shown) [AF102B, reference compound]
- inhibition of ApoE production (ApoE): inactive

Compound: CCN(C)C(=O)Oc1cccc([C@H](C)N(C)C)c1 [rivastigmine, reference compound]
- reversal test, swimming speed [1]: significantly decreased
- training, swimming speed ([1]; normal hippocampus mice): significantly decreased the swimming speed
- training, swimming speed ([1]; small hippocampus mice): Neither rivastigmine nor nicotine had any significant effect
- transfer test, spatial bias ([1]; small hippocampus mice): complete spatial bias
- training, path length ([1]; small hippocampus mice, AF150(S) both doses, AF267B the higher dose): positively affected the performance
- training, escape latency [1, 3]: positively affected the training performance

Compound: CCC1SC2(CCN(C)CC2)N(C(=O)CCc2c[nH]c3ccccc23)C1=O (racemic) [AF704, 2-Ethyl-4(3-1H-indol-3-yl-propionyl)-8-methyl-1-thia-4,8-diaza-spiro[4.5]decan-3-one]
- phosphorylated tau (AT8) (tau): induce dephosphorylation of tau proteins
- β-A25-35-induced cytotoxicity [2]: more effective than carbachol and AF267B

Compound: CC[C@@H]1SC2(CCN(C)CC2)N(S(=O)(=O)c2ccc(F)cc2)C1=O [AF700, (S)-2-Ethyl-4-(4-fluoro-benzenesulfonyl)-8-methyl-1-thia-4,8diaza-spiro[4.5]decan-3-one]
- β-A25-35-induced cytotoxicity [2]: more effective than carbachol and AF267B

Compound: CN1CCCC1c1cccnc1 (stereo not shown) [nicotine, reference compound]
- reversal test, swimming speed [1]: significantly decreased
- training, escape latency ([1]; normal hippocampus mice): degraded the performance
- training, swimming speed ([1]; normal hippocampus mice): significantly decreased the swimming speed
- reversal test, escape latency ([1]; normal hippocampus mice, AF150(S) at 0.5 mg/kg): no significant effect
- training, swimming speed ([1]; small hippocampus mice): Neither rivastigmine nor nicotine had any significant effect
- transfer test, spatial bias ([1]; small hippocampus mice): only a partial spatial bias
- training, escape latency [1, 3]: no improving effect

Compound: (S)-Ethyl-4-(3-1H-indol-3-yl-propionyl)-8-methyl-1-thia-4,8-diaza-spiro[4.5]decan-3-one [AF704B]
- phosphorylated tau (AT8) (tau): induce dephosphorylation of tau proteins

Compound: CCC1SC2(CCN(C)CC2)N(CCc2c[nH]c3ccccc23)C1=O (stereo not shown) [AF703, 2-Ethyl-4-[2-(1H-indol-3-yl)ethyl]-8-methyl-1-thia-4,8-diaza-spiro[4.5]decan-3-one]
- β-A25-35-induced cytotoxicity [2]: more effective than carbachol and AF267B
